In the CheMixHub viscosity set:

Experiment: xn = mol fraction of the nth substance listed

OCCCCCO + O=C1CCCN1
308.15 K, 101 kPa
Conditions | viscosity [mPa·s]
x1 = 0.479 | 21.15
x1 = 0.9392 | 54.65

CCc1ccccc1 + CC1COC(=O)O1
viscosity [mPa·s], 101 kPa
Conditions | 298.15 K | 308.15 K
x2 = 0.0294 | 0.6462 | 0.5585
x2 = 0.042 | 0.6512 | 0.5634
x2 = 0.0729 | 0.6609 | 0.5767
x2 = 0.0821 | 0.6655 | 0.5811
x2 = 0.1013 | 0.6735 | 0.5908
x2 = 0.2023 | 0.7164 | 0.6552
x2 = 0.3008 | 0.8062 | 0.7411
x2 = 0.4012 | 0.9344 | 0.8533
x2 = 0.5001 | 1.098 | 0.9894
x2 = 0.6001 | 1.302 | 1.154
x2 = 0.7001 | 1.544 | 1.345
x2 = 0.8009 | 1.827 | 1.567
x2 = 0.8992 | 2.14 | 1.811

CCOP(=O)(OCC)OCC + CC(=O)N(C)C
298.15 K, 101.3 kPa
Conditions | viscosity [mPa·s]
x1 = 0.1085 | 0.997
x1 = 0.2118 | 1.066
x1 = 0.3173 | 1.133
x1 = 0.4275 | 1.199
x1 = 0.5277 | 1.257
x1 = 0.5946 | 1.294
x1 = 0.7173 | 1.36
x1 = 0.8144 | 1.41
x1 = 0.8998 | 1.456

N#CCCCCC#N + CC(=O)N(C)C
303.15 K, 101.33 kPa
Conditions | viscosity [mPa·s]
x1 = 0.0999 | 0.9801
x1 = 0.2976 | 1.363
x1 = 0.3998 | 1.666
x1 = 0.4988 | 2.029
x1 = 0.5898 | 2.42
x1 = 0.699 | 2.965
x1 = 0.8491 | 3.85

COCOCOCOCOC + COCOCOCOC
Conditions | viscosity [mPa·s]
293.15 K, 100 kPa, x2 = 0.12 | 1.895

C=CC(=O)OCC + CC#N
viscosity [mPa·s], 100 kPa
Conditions | 293.15 K | 298.15 K | 303.15 K | 308.15 K | 313.15 K | 318.15 K
x2 = 0.0611 | 0.5524 | 0.5177 | 0.4854 | 0.4506 | 0.4107 | 0.3704
x2 = 0.1197 | 0.5374 | 0.5035 | 0.472 | 0.4383 | 0.3998 | 0.3611
x2 = 0.1852 | 0.5211 | 0.4883 | 0.4578 | 0.4254 | 0.3886 | 0.3517
x2 = 0.2385 | 0.5081 | 0.4762 | 0.4467 | 0.4154 | 0.3801 | 0.3447
x2 = 0.2966 | 0.4944 | 0.4633 | 0.4348 | 0.4048 | 0.3711 | 0.3374
x2 = 0.3675 | 0.4781 | 0.4483 | 0.421 | 0.3926 | 0.3609 | 0.3293
x2 = 0.436 | 0.4629 | 0.4343 | 0.4082 | 0.3812 | 0.3515 | 0.3219
x2 = 0.4982 | 0.4496 | 0.4221 | 0.3971 | 0.3714 | 0.3435 | 0.3157
x2 = 0.5745 | 0.4339 | 0.4078 | 0.3841 | 0.3601 | 0.3343 | 0.3087
x2 = 0.6519 | 0.4188 | 0.394 | 0.3717 | 0.3493 | 0.3257 | 0.3024
x2 = 0.725 | 0.4054 | 0.3819 | 0.3608 | 0.34 | 0.3185 | 0.2973
x2 = 0.8185 | 0.3896 | 0.3678 | 0.3484 | 0.3296 | 0.3108 | 0.2924
x2 = 0.9145 | 0.3751 | 0.3552 | 0.3378 | 0.3213 | 0.3054 | 0.2901

C=CC(=O)OCC + CCCCCCCO
viscosity [mPa·s], 101.3 kPa
Conditions | x1 = 0.0736 | x1 = 0.1906 | x1 = 0.2456 | x1 = 0.3599 | x1 = 0.4687 | x1 = 0.6637 | x1 = 0.7551 | x1 = 0.8399 | x1 = 0.9223 | x1 = 0.9662
298.15 K | 4.585 | 3.017 | 2.513 | 1.864 | 1.399 | 0.923 | 0.778 | 0.655 | 0.576 | 0.534
308.15 K | 3.306 | 2.411 | 2.01 | 1.531 | 1.18 | 0.778 | 0.658 | 0.564 | 0.505 | 0.471

Clc1cccc2ccccc12 + Cc1ccc(C)cc1
viscosity [mPa·s], 101.33 kPa
Conditions | x1 = 0.0966 | x1 = 0.1961 | x1 = 0.2964 | x1 = 0.3991 | x1 = 0.4981 | x1 = 0.597 | x1 = 0.7003 | x1 = 0.7974 | x1 = 0.8991
298.15 K | 0.635 | 0.737 | 0.847 | 1.002 | 1.16 | 1.36 | 1.614 | 1.899 | 2.294
303.15 K | 0.596 | 0.687 | 0.789 | 0.926 | 1.074 | 1.25 | 1.475 | 1.723 | 2.072
308.15 K | 0.562 | 0.644 | 0.738 | 0.863 | 0.997 | 1.158 | 1.357 | 1.576 | 1.882

COC(C)(C)C + CCCCCCC
303.15 K, 101 kPa
Conditions | viscosity [mPa·s]
x1 = 0.1976 | 0.373
x1 = 0.2745 | 0.369
x1 = 0.3423 | 0.364
x1 = 0.4536 | 0.359
x1 = 0.5656 | 0.356
x1 = 0.6441 | 0.353
x1 = 0.7685 | 0.35
x1 = 0.8606 | 0.349
